From the NIST ThermoML archive (doi:10.1016/j.jct.2006.01.010)

Experiments:
[1] = Liquid, Ebulliometric method (Recirculating still)
[2] = refractive index (Na D-line) (dimensionless); conditions: 298.15 K; 101.33 kPa; Liquid; Standard Abbe refractometry

ClC(Cl)C(Cl)Cl [1,1,2,2-tetrachloroethane]
[1]
Conditions | vapor or sublimation pressure [kPa]
343.15 K | 7.24
353.15 K | 11.23
363.15 K | 16.65
373.15 K | 24.17
379.75 K | 30.48
389.55 K | 42.33
396.35 K | 52.48
401.55 K | 61.35
405.55 K | 69.05
409.55 K | 77.59
413.45 K | 86.66
416.45 K | 94.27
418.95 K | 101.08

Conditions | refractive index
[2] | 1.492

O=C1CCCCC1 [cyclohexanone]
[1]
Conditions | vapor or sublimation pressure [kPa]
343.15 K | 5.57
353.15 K | 8.6
363.15 K | 13.07
373.15 K | 18.9
385.45 K | 29.1
394.05 K | 38.41
401.35 K | 48.2
407.35 K | 57.43
414.75 K | 70.59
419.8 K | 81.35
424.05 K | 91.55
427.8 K | 101.1

Conditions | refractive index
[2] | 1.4481

O=C1CCCC1 [cyclopentanone]
[1]
Conditions | vapor or sublimation pressure [kPa]
323.15 K | 5.31
333.15 K | 8.49
343.15 K | 13.03
353.15 K | 19.61
358.85 K | 24.48
363.15 K | 28.61
363.45 K | 29.04
372.25 K | 39.48
378.35 K | 48.32
384.15 K | 57.77
388.85 K | 67.18
393.25 K | 76.67
397.65 K | 87.37
399.75 K | 92.98
403.05 K | 101.76

Conditions | refractive index
[2] | 1.4349
